Measurements reported in patent US8114880B2, “Piperidine or piperazine substituted tetrahydro-naphthalene-1-carboxylic acid MTP inhibiting compounds” (Janssen Pharmaceutica N.V., priority 2006, dated 2012).

What was measured:
[1] = biological target: MTP (Homo sapiens, UniProt P55157); experiment: MTP assay (triglyceride transfer from donor to acceptor vesicles); type: biochemical; conditions: MTP activity, percent triglyceride transfer from donor to acceptor vesicles, 37° C.
Summary of the method: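 Radiolabelled triglyceride transfer from donor vesicles (phosphatidylcholine, 7.5 mol % cardiolipin, 0.25 mol % glycerol tri[1-^14C]-oleate) to phosphatidylcholine acceptor vesicles with BSA, pH 7.5 Tris buffer; compounds in DMSO (0.13% final), 5 min preincubation at 37° C before MTP addition. Donor vesicles removed on DEAE-52; acceptor-supernatant ^14C counts give percent transfer.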

[2] = test system: HepG2 cells; experiment: Quantification of the secretion of ApoB; type: cell-based; conditions: Homo sapiens, HepG2, 24 h, 24 hours of incubation, pIC50 = -log IC50
Protocol: HepG2 cells were cultured in 24-well plates in MEM Rega 3 containing 10% fetal calf serum. At 70% confluency, the medium was changed and the test compound or carrier (DMSO, 0.4% final concentration) was added. After 24 hours of incubation, the medium was transferred to Eppendorf tubes and cleared by centrifugation. A sheep antibody directed against either apoB was added to the supernatant and the mixture was kept at 8° C. for 24 hours. Then, rabbit anti-sheep antibody was added and the immune complex was allowed to precipitate for 24 hours at 8° C. The immunoprecipitate was pelleted by centrifugation for 25 minutes at 1320 g and washed twice with a buffer containing 40 mM Mops, 40 mM NaH2PO4, 100 mM NaF, 0.2 mM DTT, 5 mM EDTA, 5 mM EGTA, 1% Triton-X-100, 0.5% sodium deoxycholate (DOC), 0.1% SDS, 0.2 μM leupeptin and 0.2 μM PMSF. Radioactivity in the pellet was quantified by liquid scintillation counting. The IC50 values are usually converted to pIC50 values (=−log IC50 value) for ease of use.

MTP, sequence (P55157 19-894, species assumed): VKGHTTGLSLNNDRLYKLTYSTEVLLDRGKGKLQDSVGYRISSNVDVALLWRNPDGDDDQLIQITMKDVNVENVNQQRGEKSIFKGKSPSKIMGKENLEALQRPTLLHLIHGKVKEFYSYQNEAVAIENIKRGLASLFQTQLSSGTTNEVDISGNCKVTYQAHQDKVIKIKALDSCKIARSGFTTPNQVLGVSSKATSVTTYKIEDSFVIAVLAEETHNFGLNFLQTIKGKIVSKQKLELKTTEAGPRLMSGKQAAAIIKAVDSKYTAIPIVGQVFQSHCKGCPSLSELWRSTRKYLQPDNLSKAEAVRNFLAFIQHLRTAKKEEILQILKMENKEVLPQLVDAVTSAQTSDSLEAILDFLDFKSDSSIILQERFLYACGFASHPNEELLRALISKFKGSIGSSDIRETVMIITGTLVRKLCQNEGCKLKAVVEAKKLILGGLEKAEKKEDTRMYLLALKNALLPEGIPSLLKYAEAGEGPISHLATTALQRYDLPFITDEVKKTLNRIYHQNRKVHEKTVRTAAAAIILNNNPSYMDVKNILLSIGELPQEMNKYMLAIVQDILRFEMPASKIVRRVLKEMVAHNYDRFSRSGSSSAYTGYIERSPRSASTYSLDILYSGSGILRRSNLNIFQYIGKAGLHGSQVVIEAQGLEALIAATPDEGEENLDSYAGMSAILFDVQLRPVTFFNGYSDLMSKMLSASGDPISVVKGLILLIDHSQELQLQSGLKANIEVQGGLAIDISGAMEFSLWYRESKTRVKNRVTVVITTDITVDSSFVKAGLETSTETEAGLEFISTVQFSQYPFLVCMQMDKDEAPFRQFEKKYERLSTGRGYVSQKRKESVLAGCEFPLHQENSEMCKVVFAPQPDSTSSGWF
MTP, sequence (P07237 18-508 partner, species assumed): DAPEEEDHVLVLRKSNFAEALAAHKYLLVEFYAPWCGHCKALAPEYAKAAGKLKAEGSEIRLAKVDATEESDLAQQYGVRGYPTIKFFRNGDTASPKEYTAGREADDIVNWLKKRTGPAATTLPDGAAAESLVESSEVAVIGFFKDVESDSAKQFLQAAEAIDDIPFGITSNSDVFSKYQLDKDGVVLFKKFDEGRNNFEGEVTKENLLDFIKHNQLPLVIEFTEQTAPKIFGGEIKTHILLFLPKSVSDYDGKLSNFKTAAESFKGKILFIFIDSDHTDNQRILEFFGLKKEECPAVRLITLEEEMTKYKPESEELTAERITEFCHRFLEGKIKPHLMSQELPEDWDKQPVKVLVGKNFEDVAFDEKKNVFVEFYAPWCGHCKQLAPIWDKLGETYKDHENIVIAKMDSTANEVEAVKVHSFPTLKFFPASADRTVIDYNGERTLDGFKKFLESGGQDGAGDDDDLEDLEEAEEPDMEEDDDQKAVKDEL

IC50 [1] | IC50 [2] | Structure (SMILES)
3.47 nM | 11.7 nM | CCOC(=O)[C@@]1(c2ccccc2)CC[C@H](C(=O)N2CCC(NC(=O)c3ccccc3O)CC2)c2ccccc21 [Co. No. 36]
> 10000 nM | 70.6 nM | COc1ccccc1C(=O)NC1CCN(C(=O)[C@H]2CC[C@](C(N)=O)(c3ccccc3)c3ccccc32)CC1 [Co. No. 40]
> 10000 nM | 1000 nM | CCOC(=O)[C@]1(c2ccccc2)CC[C@@H](C(=O)N2CCC(NC(=O)c3ccccc3O)CC2)c2ccccc21 [Co. No. 42]
2.37 nM | 27.2 nM | CCOC(=O)CNC(=O)[C@@]1(c2ccccc2)CC[C@H](C(=O)N2CCC(NC(=O)c3ccccc3OC)CC2)c2ccccc21 [Co. No. 47]
13.3 nM | 9770 nM | CCOC(=O)CNC(=O)[C@]1(c2ccccc2)CC[C@@H](C(=O)N2CCC(NC(=O)c3ccccc3OC)CC2)c2ccccc21 [Co. No. 48]
18.1 nM | 638 nM | COC(=O)[C@]1(c2ccccc2)CC[C@@H](C(=O)N2CCC(NC(=O)c3cccc(OC)c3OC)CC2)c2ccccc21 [Co. No. 49]
11.6 nM | 16.1 nM | COC(=O)[C@]1(c2ccccc2)CC[C@@H](C(=O)N2CCC(NC(=O)c3cc(OC)ccc3OC)CC2)c2ccccc21 [Co. No. 50]
12.8 nM | 9.51 nM | COC(=O)[C@]1(c2ccccc2)CC[C@@H](C(=O)N2CCC(NC(=O)c3cc(C)ccc3OC)CC2)c2ccccc21 [Co. No. 51]
9.64 nM | 61.8 nM | COC(=O)[C@]1(c2ccccc2)CC[C@@H](C(=O)N2CCC(NC(=O)c3cc(OC)ccc3OCC(F)(F)F)CC2)c2ccccc21 [Co. No. 53]
10.4 nM | 65.8 nM | COC(=O)[C@]1(c2ccccc2)CC[C@@H](C(=O)N2CCC(NC(=O)c3ccccc3OC(F)F)CC2)c2ccccc21 [Co. No. 54]
60.7 nM | > 1000 nM | COC(=O)[C@]1(c2ccccc2)CC[C@@H](C(=O)N2CCC(NC(=O)c3c(O)cccc3OC)CC2)c2ccccc21 [Co. No. 55]
1.69 nM | 2.24 nM | COC(=O)[C@]1(c2ccccc2)CC[C@@H](C(=O)N2CCC(NC(=O)c3cccnc3OC)CC2)c2ccccc21 [Co. No. 56]
5.68 nM | 69.7 nM | CCOc1ncccc1C(=O)NC1CCN(C(=O)[C@@H]2CC[C@](C(=O)OC)(c3ccccc3)c3ccccc32)CC1 [Co. No. 57]
149 nM | 2.04 nM | CCCOc1cccnc1C(=O)NC1CCN(C(=O)[C@@H]2CC[C@](C(=O)OC)(c3ccccc3)c3ccccc32)CC1 [Co. No. 58]
> 100 nM | 225 nM | COC(=O)[C@]1(c2ccccc2)CC[C@@H](C(=O)N2CCC(NC(=O)c3cc(OC)nnc3OC)CC2)c2ccccc21 [Co. No. 59]
> 10000 nM | 286 nM | COC(=O)[C@]1(c2ccccc2)CC[C@@H](C(=O)N2CCC(NC(=O)c3cc(O)ccc3OC)CC2)c2ccccc21 [Co. No. 61]
0.713 nM | 42.1 nM | COc1ccccc1C(=O)NC1CCN(C(=O)[C@H]2CC[C@@](C(=O)NCC(=O)OC(C)(C)C)(c3ccccc3)c3ccccc32)CC1 [Co. No. 62]
> 1000 nM | > 10000 nM | COc1ccccc1C(=O)NC1CCN(C(=O)[C@H]2CC[C@@](C(=O)NCC(=O)O)(c3ccccc3)c3ccccc32)CC1 [Co. No. 63]
3.87 nM | 17.8 nM | COC(=O)CNC(=O)[C@@]1(c2ccccc2)CC[C@H](C(=O)N2CCC(NC(=O)c3ccccc3OC)CC2)c2ccccc21 [Co. No. 64]
2.86 nM | 7.98 nM | COC(=O)CCNC(=O)[C@@]1(c2ccccc2)CC[C@H](C(=O)N2CCC(NC(=O)c3ccccc3OC)CC2)c2ccccc21 [Co. No. 65]
20.2 nM | > 1000 nM | CCOC(=O)[C@H](C)NC(=O)[C@@]1(c2ccccc2)CC[C@H](C(=O)N2CCC(NC(=O)c3ccccc3OC)CC2)c2ccccc21 [Co. No. 66]
20.2 nM | 873 nM | CCOC(=O)[C@@H](C)NC(=O)[C@@]1(c2ccccc2)CC[C@H](C(=O)N2CCC(NC(=O)c3ccccc3OC)CC2)c2ccccc21 [Co. No. 67]
17.9 nM | > 1000 nM | CCOC(=O)[C@@H](NC(=O)[C@@]1(c2ccccc2)CC[C@H](C(=O)N2CCC(NC(=O)c3ccccc3OC)CC2)c2ccccc21)C(C)C [Co. No. 68]

IC50 [1] | IC50 [2] | Structure (SMILES)
24.4 nM | 154 nM | CCOC(=O)[C@H](NC(=O)[C@@]1(c2ccccc2)CC[C@H](C(=O)N2CCC(NC(=O)c3ccccc3OC)CC2)c2ccccc21)C(C)C [Co. No. 69]
35.3 nM | > 1000 nM | CCOC(=O)[C@H](CC(C)C)NC(=O)[C@@]1(c2ccccc2)CC[C@H](C(=O)N2CCC(NC(=O)c3ccccc3OC)CC2)c2ccccc21 [Co. No. 70]
10.7 nM | > 1000 nM | CCOC(=O)C[C@H](NC(=O)[C@@]1(c2ccccc2)CC[C@H](C(=O)N2CCC(NC(=O)c3ccccc3OC)CC2)c2ccccc21)C(=O)OCC [Co. No. 72]
> 100 nM | > 1000 nM | CCOC(=O)C[C@H](NC(=O)[C@@]1(c2ccccc2)CC[C@H](C(=O)N2CCC(NC(=O)c3ccccc3OC)CC2)c2ccccc21)C(=O)OC [Co. No. 73]
5.08 nM | > 1000 nM | CCOC(=O)CC[C@H](NC(=O)[C@@]1(c2ccccc2)CC[C@H](C(=O)N2CCC(NC(=O)c3ccccc3OC)CC2)c2ccccc21)C(=O)OCC [Co. No. 74]
2.24 nM | 20.2 nM | COC(=O)[C@H](CCCCNC(=O)OC(C)(C)C)NC(=O)[C@@]1(c2ccccc2)CC[C@H](C(=O)N2CCC(NC(=O)c3ccccc3OC)CC2)c2ccccc21 [Co. No. 75]
33.3 nM | 128 nM | CCOC(=O)[C@H](NC(=O)[C@@]1(c2ccccc2)CC[C@H](C(=O)N2CCC(NC(=O)c3ccccc3OC)CC2)c2ccccc21)c1ccccc1 [Co. No. 79]
70.1 nM | 548 nM | CCOC(=O)[C@@H](NC(=O)[C@@]1(c2ccccc2)CC[C@H](C(=O)N2CCC(NC(=O)c3ccccc3OC)CC2)c2ccccc21)c1ccccc1 [Co. No. 80]
12.6 nM | > 1000 nM | CCOC(=O)[C@H](Cc1ccccc1)NC(=O)[C@@]1(c2ccccc2)CC[C@H](C(=O)N2CCC(NC(=O)c3ccccc3OC)CC2)c2ccccc21 [Co. No. 81]
12.9 nM | 289 nM | CCOC(=O)[C@@H](Cc1ccccc1)NC(=O)[C@@]1(c2ccccc2)CC[C@H](C(=O)N2CCC(NC(=O)c3ccccc3OC)CC2)c2ccccc21 [Co. No. 82]
71.4 nM | 670 nM | CCOC(=O)C1CCCCN1C(=O)[C@@]1(c2ccccc2)CC[C@H](C(=O)N2CCC(NC(=O)c3ccccc3OC)CC2)c2ccccc21 (some centres unmarked) [Co. No. 83]
228 nM | > 1000 nM | CCOC(=O)C1CCCN(C(=O)[C@@]2(c3ccccc3)CC[C@H](C(=O)N3CCC(NC(=O)c4ccccc4OC)CC3)c3ccccc32)C1 (some centres unmarked) [Co. No. 84]
> 100 nM | > 1000 nM | CCOC(=O)C(Cc1ccc(O)cc1)NC(=O)[C@@]1(c2ccccc2)CC[C@H](C(=O)N2CCC(NC(=O)c3ccccc3OC)CC2)c2ccccc21 (some centres unmarked) [Co. No. 85]
66.5 nM | 653 nM | CCOC(=O)C(Cc1c[nH]c2ccccc12)NC(=O)[C@@]1(c2ccccc2)CC[C@H](C(=O)N2CCC(NC(=O)c3ccccc3OC)CC2)c2ccccc21 (some centres unmarked) [Co. No. 86]
2.15 nM | 20.6 nM | COc1ccccc1C(=O)NC1CCN(C(=O)[C@H]2CC[C@@](C(=O)NCCC(=O)OC(C)(C)C)(c3ccccc3)c3ccccc32)CC1 [Co. No. 88]
2130 nM | > 1000 nM | COc1ccccc1C(=O)NC1CCN(C(=O)[C@H]2CC[C@@](C(=O)NCCC(=O)O)(c3ccccc3)c3ccccc32)CC1 [Co. No. 90]
38.2 nM | 512 nM | COc1ccccc1C(=O)NC1CCN(C(=O)[C@H]2CC[C@@](C(=O)N[C@H](Cc3ccccc3)C(=O)OC(C)(C)C)(c3ccccc3)c3ccccc32)CC1 [Co. No. 96]
13.6 nM | 168 nM | COc1ccccc1C(=O)NC1CCN(C(=O)[C@H]2CC[C@@](C(=O)N[C@H](C(=O)OC(C)(C)C)C(C)C)(c3ccccc3)c3ccccc32)CC1 [Co. No. 102]
61 nM | 382 nM | COc1ccccc1C(=O)NC1CCN(C(=O)[C@H]2CC[C@@](C(=O)N[C@@H](C(=O)OC(C)(C)C)C(C)C)(c3ccccc3)c3ccccc32)CC1 [Co. No. 103]
21.6 nM | 171 nM | COc1ccccc1C(=O)NC1CCN(C(=O)[C@H]2CC[C@@](C(=O)N[C@@H](CC(C)C)C(=O)OC(C)(C)C)(c3ccccc3)c3ccccc32)CC1 [Co. No. 104]
48.8 nM | 271 nM | COc1ccccc1C(=O)NC1CCN(C(=O)[C@H]2CC[C@@](C(=O)N[C@@H](COC(C)(C)C)C(=O)OC(C)(C)C)(c3ccccc3)c3ccccc32)CC1 [Co. No. 105]
16.1 nM | 185 nM | COc1ccccc1C(=O)NC1CCN(C(=O)[C@H]2CC[C@@](C(=O)N[C@@H](CC(=O)OC(C)(C)C)C(=O)OC(C)(C)C)(c3ccccc3)c3ccccc32)CC1 [Co. No. 106]
> 100 nM | > 1000 nM | COc1ccccc1C(=O)NC1CCN(C(=O)[C@H]2CC[C@@](C(=O)N[C@@H](CCC(N)=O)C(=O)OC(C)(C)C)(c3ccccc3)c3ccccc32)CC1 [Co. No. 107]
